In US12091402B2 (Avilar Therapeutics, Inc., priority 2021, dated 2024):
pEC50: −log10 of the molar value. Where two headings read alike, the source gives them in different places.

Legend:
[1] = molecular target: T1, ASGPR receptor on the cell surface (HepG2 cells) (Homo sapiens, UniProt P07306); test: Ternary complex formation assay (flow cytometry, HepG2); type: cell-based
T1 construct: host or cells: HepG2
T1 sequence (P07306 1-291): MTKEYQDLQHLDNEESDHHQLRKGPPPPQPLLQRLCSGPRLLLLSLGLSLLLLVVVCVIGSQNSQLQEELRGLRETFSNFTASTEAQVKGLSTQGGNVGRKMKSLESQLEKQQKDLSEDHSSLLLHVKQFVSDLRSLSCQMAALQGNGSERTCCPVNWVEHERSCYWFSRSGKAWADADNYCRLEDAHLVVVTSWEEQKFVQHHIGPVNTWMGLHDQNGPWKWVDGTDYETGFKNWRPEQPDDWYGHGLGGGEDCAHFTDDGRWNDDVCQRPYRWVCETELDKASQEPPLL
T1 sequence (P07307 1-311 partner): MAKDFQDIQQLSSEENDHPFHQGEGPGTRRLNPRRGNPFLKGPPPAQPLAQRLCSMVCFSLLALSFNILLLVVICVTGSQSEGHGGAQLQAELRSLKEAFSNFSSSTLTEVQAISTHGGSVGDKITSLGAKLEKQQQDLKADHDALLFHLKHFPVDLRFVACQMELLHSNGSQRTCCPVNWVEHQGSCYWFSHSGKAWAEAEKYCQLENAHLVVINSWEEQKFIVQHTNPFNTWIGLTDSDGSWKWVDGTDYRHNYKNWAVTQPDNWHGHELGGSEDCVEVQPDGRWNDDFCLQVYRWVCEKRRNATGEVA
Source text: The ternary complex formation assay is designed to identify the concentration of Degrader required to form a complex between the degrader, a constant concentration of fluorescently-labeled antibody and the ASGPR receptor on the cell surface. The peak mean fluorescence intensity (MFI) occurs at the optimal degrader concentration for ternary complex formation. Sub-optimal concentrations of degrader (too much or too little) results in fewer complexes formed and a reduced […].
Human IgG (Sigma-Aldrich, 14506) was covalently labeled with Alexa Fluor 488 using the Alexa Fluor™ 488 Protein Labeling Kit (Thermo Fisher, A10235) following the manufacturer's instructions. HepG2 cells (ATCC, HIB-8065) were cultured to about 70% confluence and harvested by trypsinization. Single cell suspensions of HepG2 cells were plated in 96 well plates at 1×10^5 cells/well in cell culture media (DMEM supplemented with […]) and placed at 4° C. For studies using human IgG, cells were incubated with 100 nM AF488-labeled anti-human IgG and serial dilutions of IgG-based degrader for 1 hour at 4° C. For studies using DNP, cells were incubated with 100 nM AF488-labeled polyclonal rabbit anti-dinitrophenyl (DNP) antibodies (ThermoFisher) and serial dilutions of DNP-based degrader for 1 hour at 4° C. After washing once with ice-cold PBS containing 0.1% BSA and 0.1% sodium azide, cells were resuspended in 150 uL PBS+0.1% BSA and cell-associated AF488 fluorescence was measured by flow cytometry using the iQue® Screener PLUS Flow Cytometer (IntelliCyt).

HepG2 cells = test: Cellular uptake assay of AF488-labeled antibody (HepG2); type: cell-based; details: for pEC50: HepG2 cells
Procedure: The cellular uptake assay is designed to measure compound-mediated cellular uptake of fluorescently labeled antibody following ternary complex formation with the ASGPR receptor and endocytosis of the entire complex into cells.
Human IgG (Sigma-Aldrich, 14506) was covalently labeled with Alexa Fluor 488 using the Alexa Fluor™ 488 Protein Labeling Kit (Thermo Fisher, A10235) following the manufacturer's instructions. HepG2 cells were plated in DMEM supplemented with 10% FBS at 5,000 cells per well in a 96-well microtiter plate and incubated for approximately 18 hours at 37° C./5% CO2. For studies using human IgG, 100 nM AF488-labeled human IgG antibodies and serial dilutions of IgG-based degrader (0.1% DMSO final concentration) were added to the cells and the mixture was incubated at 37° C. for 6 hours. For studies using DNP, 100 nM AF488-labeled DNP antibodies and serial dilutions of DNP-based degrader (0.1% DMSO final concentration) were added to the cells and the mixture was incubated at 37° C. for 6 hours. HepG2 cells were fixed in 100% methanol at −20° C. for 20 min, washed 3× with PBS, then stained with DAPI (Thermo, Cat #H3570). HepG2 cells were imaged for DAPI and Alexa Fluor 488 using the Operetta CLS, high-content analysis system (PerkinElmer). Data is presented as the ratio of the number of cells positive for hIgG or DNP (AF-488 fluorescence) over the total cell number (measured by DAPI).

[2] = 100 nM AF488-labeled antibody, 37° C. for 6 hours, class symbols, read-out: Uptake Assay EC50

SMILES: CC(C)C[C@@H]1NC(=O)[C@H](Cc2c[nH]cn2)NC(=O)[C@H](Cc2c[nH]c3ccccc23)NC(=O)[C@H](C)NC(=O)[C@@H]2CSSC[C@H](NC(=O)[C@H](Cc3c[nH]c4ccccc34)NC(=O)[C@H](C(C)C)NC(=O)[C@H](CC(C)C)NC(=O)[C@H](CCC(=O)O)NC(=O)CNC1=O)C(=O)N[C@@H]([C@@H](C)O)C(=O)N1CCC[C@@H]1C(=O)N1C[C@@H](NC(=O)CCOCCOCCOCCNC(=O)CCCc3cn(C[C@@]45CO[C@@H](O4)[C@H](Nc4nc(Cl)ns4)[C@@H](O)[C@H]5O)nn3)C[C@H]1C(=O)N[C@@H](CC(=O)O)C(=O)N2 [Compound 5]
- pEC50 [1]: > 7.00
- pEC50 (HepG2 cells; [2]): > 7.00

SMILES: CC(C)C[C@@H]1NC(=O)[C@H](Cc2c[nH]cn2)NC(=O)[C@H](Cc2c[nH]c3ccccc23)NC(=O)[C@H](C)NC(=O)[C@@H]2CSSC[C@H](NC(=O)[C@H](Cc3c[nH]c4ccccc34)NC(=O)[C@H](C(C)C)NC(=O)[C@H](CC(C)C)NC(=O)[C@H](CCC(=O)O)NC(=O)CNC1=O)C(=O)N[C@@H]([C@@H](C)O)C(=O)N1CCC[C@@H]1C(=O)N1C[C@@H](NC(=O)CCOCCOCCOCCNC(=O)CCCc3cn(CCCCCC(=O)NC(COCCC(=O)NCCOCCOCCOCCOC[C@H]4OC[C@H](Nc5nccc(C(F)(F)F)n5)[C@@H](O)[C@H]4O)COCCC(=O)NCCOCCOCCOCCOC[C@H]4OC[C@H](Nc5nccc(C(F)(F)F)n5)[C@@H](O)[C@H]4O)nn3)C[C@H]1C(=O)N[C@@H](CC(=O)O)C(=O)N2 [Compound 11]
- pEC50 [1]: > 7.00
- pEC50 (HepG2 cells; [2]): > 7.00

SMILES: O=[N+]([O-])c1ccc(NCCOCCOCCOCCOCCOCCOCCOC[C@@]23CO[C@@H](O2)[C@H](Nc2nc(Cl)ns2)[C@@H](O)[C@H]3O)c([N+](=O)[O-])c1 [Compound 26, (1S,2R,3R,4R,5S)-4-((3-chloro-1,2,4-thiadiazol-5-yl)amino)-1-(22-((2,4-dinitrophenyl)amino)-2,5,8,11,14,17,20-heptaoxadocosyl)-6,8-dioxabicyclo[3.2.1]octane-2,3-diol]
- EC50 ([1]; Ternary Complex EC50 (nM), HepG2 cells, 100 nM AF488-labeled antibody, 1 hour at 4° C., class symbols): < 100 nM
- EC50 (HepG2 cells; Homo sapiens, HepG2, 6 h, read-out: Uptake Assay EC50 (nM)): < 100 nM

SMILES: CC(C)C[C@@H]1NC(=O)[C@H](Cc2c[nH]cn2)NC(=O)[C@H](Cc2c[nH]c3ccccc23)NC(=O)[C@H](C)NC(=O)[C@@H]2CSSC[C@H](NC(=O)[C@H](Cc3c[nH]c4ccccc34)NC(=O)[C@H](C(C)C)NC(=O)[C@H](CC(C)C)NC(=O)[C@H](CCC(=O)O)NC(=O)CNC1=O)C(=O)N[C@@H]([C@@H](C)O)C(=O)N1CCC[C@@H]1C(=O)N1C[C@@H](NC(=O)COCCOCCOCC(=O)NC(COCCC(=O)NCCOCCOCCOCCOC[C@H]3OC[C@H](Nc4cncc(C(F)(F)F)n4)[C@@H](O)[C@H]3O)COCCC(=O)NCCOCCOCCOCCOC[C@H]3OC[C@H](Nc4cncc(C(F)(F)F)n4)[C@@H](O)[C@H]3O)C[C@H]1C(=O)N[C@@H](CC(=O)O)C(=O)N2 [Compound 40]
- pEC50 [1]: > 7.00
- pEC50 (HepG2 cells; [2]): > 7.00

SMILES: CC(C)C[C@@H]1NC(=O)[C@H](Cc2c[nH]cn2)NC(=O)[C@H](Cc2c[nH]c3ccccc23)NC(=O)[C@H](C)NC(=O)[C@@H]2CSSC[C@H](NC(=O)[C@H](Cc3c[nH]c4ccccc34)NC(=O)[C@H](C(C)C)NC(=O)[C@H](CC(C)C)NC(=O)[C@H](CCC(=O)O)NC(=O)CNC1=O)C(=O)N[C@@H]([C@@H](C)O)C(=O)N1CCC[C@@H]1C(=O)N1C[C@@H](NC(=O)COCC(=O)NC(COCCC(=O)NCCOCCOCCOCCOC[C@H]3OC[C@H](Nc4cncc(C(F)(F)F)n4)[C@@H](O)[C@H]3O)COCCC(=O)NCCOCCOCCOCCOC[C@H]3OC[C@H](Nc4cncc(C(F)(F)F)n4)[C@@H](O)[C@H]3O)C[C@H]1C(=O)N[C@@H](CC(=O)O)C(=O)N2 [Compound 43]
- pEC50 [1]: > 7.00
- pEC50 (HepG2 cells; [2]): > 7.00

SMILES: CC(C)C[C@@H]1NC(=O)[C@H](Cc2c[nH]cn2)NC(=O)[C@H](Cc2c[nH]c3ccccc23)NC(=O)[C@H](C)NC(=O)[C@@H]2CSSC[C@H](NC(=O)[C@H](Cc3c[nH]c4ccccc34)NC(=O)[C@H](C(C)C)NC(=O)[C@H](CC(C)C)NC(=O)[C@H](CCC(=O)O)NC(=O)CNC1=O)C(=O)N[C@@H]([C@@H](C)O)C(=O)N1CCC[C@@H]1C(=O)N1C[C@@H](NC(=O)COCC(=O)NC(COCCC(=O)NCCOCCOCCOCCOC[C@H]3OC[C@H](Nc4nccc(C(F)(F)F)n4)[C@@H](O)[C@H]3O)COCCC(=O)NCCOCCOCCOCCOC[C@H]3OC[C@H](Nc4nccc(C(F)(F)F)n4)[C@@H](O)[C@H]3O)C[C@H]1C(=O)N[C@@H](CC(=O)O)C(=O)N2 [Compound 46]
- pEC50 [1]: > 7.00
- pEC50 (HepG2 cells; [2]): > 7.00

SMILES: CC(C)C[C@@H]1NC(=O)[C@H](Cc2cnc[nH]2)NC(=O)[C@H](Cc2c[nH]c3ccccc23)NC(=O)[C@H](C)NC(=O)[C@@H]2CSSC[C@H](NC(=O)[C@H](Cc3c[nH]c4ccccc34)NC(=O)[C@H](C(C)C)NC(=O)[C@H](CC(C)C)NC(=O)[C@H](CCC(=O)O)NC(=O)CNC1=O)C(=O)N[C@@H]([C@@H](C)O)C(=O)N1CCC[C@@H]1C(=O)N1C[C@@H](NC(=O)COCCOCC(=O)NC(COCCC(=O)NCCOCCOCCOCCOC[C@H]3OC[C@H](Nc4nccc(C(F)(F)F)n4)[C@@H](O)[C@H]3O)COCCC(=O)NCCOCCOCCOCCOC[C@H]3OC[C@H](Nc4nccc(C(F)(F)F)n4)[C@@H](O)[C@H]3O)C[C@H]1C(=O)N[C@@H](CC(=O)O)C(=O)N2 [Compound 47]
- pEC50 ([1]; HepG2 cells, 100 nM AF488-labeled antibody, 1 hour at 4° C., class symbols, read-out: Ternary Complex EC50): > 7.00
- pEC50 (HepG2 cells; [2]): > 7.00

SMILES: CC(C)C[C@@H]1NC(=O)[C@H](Cc2c[nH]cn2)NC(=O)[C@H](Cc2c[nH]c3ccccc23)NC(=O)[C@H](C)NC(=O)[C@@H]2CSSC[C@H](NC(=O)[C@H](Cc3c[nH]c4ccccc34)NC(=O)[C@H](C(C)C)NC(=O)[C@H](CC(C)C)NC(=O)[C@H](CCC(=O)O)NC(=O)CNC1=O)C(=O)N[C@@H]([C@@H](C)O)C(=O)N1CCC[C@@H]1C(=O)N1C[C@@H](NC(=O)CNC(COCCC(=O)NCCOCCOCCOCCOC[C@H]3OC[C@H](Nc4nccc(C(F)(F)F)n4)[C@@H](O)[C@H]3O)COCCC(=O)NCCOCCOCCOCCOC[C@H]3OC[C@H](Nc4nccc(C(F)(F)F)n4)[C@@H](O)[C@H]3O)C[C@H]1C(=O)N[C@@H](CC(=O)O)C(=O)N2 [Compound 50]
- pEC50 [1]: > 7.00
- pEC50 (HepG2 cells; [2]): > 7.00

SMILES: CC(C)C[C@@H]1NC(=O)[C@H](Cc2c[nH]cn2)NC(=O)[C@H](Cc2c[nH]c3ccccc23)NC(=O)[C@H](C)NC(=O)[C@@H]2CSSC[C@H](NC(=O)[C@H](Cc3c[nH]c4ccccc34)NC(=O)[C@H](C(C)C)NC(=O)[C@H](CC(C)C)NC(=O)[C@H](CCC(=O)O)NC(=O)CNC1=O)C(=O)N[C@@H]([C@@H](C)O)C(=O)N1CCC[C@@H]1C(=O)N1C[C@@H](NC(=O)CNC(COCCC(=O)NCCOCCOCCOCCOC[C@@]34CO[C@@H](O3)[C@H](Nc3cncc(C(F)(F)F)n3)[C@@H](O)[C@H]4O)COCCC(=O)NCCOCCOCCOCCOC[C@@]34CO[C@@H](O3)[C@H](Nc3cncc(C(F)(F)F)n3)[C@@H](O)[C@H]4O)C[C@H]1C(=O)N[C@@H](CC(=O)O)C(=O)N2 [Compound 73]
- pEC50 [1]: > 7.00
- pEC50 (HepG2 cells; read-out: Uptake EC50): 6.00 to 6.30
